Measurements published in ChEMBL document CHEMBL4507276 (2021).

Experiments:
[1] = biological target: Sodium-dependent serotonin transporter (Homo sapiens) (UniProt P31645); details: Compound concentration 10.0 uM
[2] = biological target: RAC-alpha serine/threonine-protein kinase (Homo sapiens) (UniProt P31749); details: Compound concentration 1000.0 nM
[3] = system: Tyrosine-protein kinase ABL1 (Homo sapiens), P00519 [E255K]; details: Compound concentration 1000.0 nM
[4] = biological target: T1, Serine/threonine-protein kinase BRSK1 (Homo sapiens) (UniProt Q8TDC3); details: Compound concentration 1000.0 nM
T1 sequence (whole entry): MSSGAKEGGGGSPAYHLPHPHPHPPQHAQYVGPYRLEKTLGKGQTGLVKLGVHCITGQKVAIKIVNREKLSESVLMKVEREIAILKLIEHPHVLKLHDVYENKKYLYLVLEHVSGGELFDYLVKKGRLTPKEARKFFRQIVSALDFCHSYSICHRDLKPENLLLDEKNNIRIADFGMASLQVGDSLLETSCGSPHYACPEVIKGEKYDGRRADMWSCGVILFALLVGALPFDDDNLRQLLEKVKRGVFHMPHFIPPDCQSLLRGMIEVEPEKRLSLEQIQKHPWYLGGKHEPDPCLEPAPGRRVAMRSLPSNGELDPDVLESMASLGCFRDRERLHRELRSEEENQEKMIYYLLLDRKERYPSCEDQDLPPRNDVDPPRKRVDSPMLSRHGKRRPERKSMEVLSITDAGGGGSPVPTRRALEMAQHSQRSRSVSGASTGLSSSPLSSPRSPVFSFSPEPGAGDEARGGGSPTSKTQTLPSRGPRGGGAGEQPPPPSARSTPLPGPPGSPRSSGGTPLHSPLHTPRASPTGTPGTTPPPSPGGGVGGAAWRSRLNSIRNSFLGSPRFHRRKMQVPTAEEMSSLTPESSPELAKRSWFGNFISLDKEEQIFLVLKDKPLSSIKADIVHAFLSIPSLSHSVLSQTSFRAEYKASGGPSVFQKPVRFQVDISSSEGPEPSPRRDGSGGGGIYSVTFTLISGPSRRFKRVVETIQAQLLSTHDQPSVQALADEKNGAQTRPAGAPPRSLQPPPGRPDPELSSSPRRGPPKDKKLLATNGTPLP

[5] = biological target: Ephrin type-A receptor 2 (Homo sapiens) (UniProt P29317); details: Compound concentration 1000.0 nM
[6] = biological target: Epidermal growth factor receptor (Homo sapiens) (UniProt P00533); details: Compound concentration 1000.0 nM
[7] = biological target: Microtubule-associated serine/threonine-protein kinase 1 (Homo sapiens) (UniProt Q9Y2H9); details: Compound concentration 1000.0 nM
Sequence of Microtubule-associated serine/threonine-protein kinase 1 (Homo sapiens) (Q9Y2H9 whole entry, looked up, the tested form may be a part): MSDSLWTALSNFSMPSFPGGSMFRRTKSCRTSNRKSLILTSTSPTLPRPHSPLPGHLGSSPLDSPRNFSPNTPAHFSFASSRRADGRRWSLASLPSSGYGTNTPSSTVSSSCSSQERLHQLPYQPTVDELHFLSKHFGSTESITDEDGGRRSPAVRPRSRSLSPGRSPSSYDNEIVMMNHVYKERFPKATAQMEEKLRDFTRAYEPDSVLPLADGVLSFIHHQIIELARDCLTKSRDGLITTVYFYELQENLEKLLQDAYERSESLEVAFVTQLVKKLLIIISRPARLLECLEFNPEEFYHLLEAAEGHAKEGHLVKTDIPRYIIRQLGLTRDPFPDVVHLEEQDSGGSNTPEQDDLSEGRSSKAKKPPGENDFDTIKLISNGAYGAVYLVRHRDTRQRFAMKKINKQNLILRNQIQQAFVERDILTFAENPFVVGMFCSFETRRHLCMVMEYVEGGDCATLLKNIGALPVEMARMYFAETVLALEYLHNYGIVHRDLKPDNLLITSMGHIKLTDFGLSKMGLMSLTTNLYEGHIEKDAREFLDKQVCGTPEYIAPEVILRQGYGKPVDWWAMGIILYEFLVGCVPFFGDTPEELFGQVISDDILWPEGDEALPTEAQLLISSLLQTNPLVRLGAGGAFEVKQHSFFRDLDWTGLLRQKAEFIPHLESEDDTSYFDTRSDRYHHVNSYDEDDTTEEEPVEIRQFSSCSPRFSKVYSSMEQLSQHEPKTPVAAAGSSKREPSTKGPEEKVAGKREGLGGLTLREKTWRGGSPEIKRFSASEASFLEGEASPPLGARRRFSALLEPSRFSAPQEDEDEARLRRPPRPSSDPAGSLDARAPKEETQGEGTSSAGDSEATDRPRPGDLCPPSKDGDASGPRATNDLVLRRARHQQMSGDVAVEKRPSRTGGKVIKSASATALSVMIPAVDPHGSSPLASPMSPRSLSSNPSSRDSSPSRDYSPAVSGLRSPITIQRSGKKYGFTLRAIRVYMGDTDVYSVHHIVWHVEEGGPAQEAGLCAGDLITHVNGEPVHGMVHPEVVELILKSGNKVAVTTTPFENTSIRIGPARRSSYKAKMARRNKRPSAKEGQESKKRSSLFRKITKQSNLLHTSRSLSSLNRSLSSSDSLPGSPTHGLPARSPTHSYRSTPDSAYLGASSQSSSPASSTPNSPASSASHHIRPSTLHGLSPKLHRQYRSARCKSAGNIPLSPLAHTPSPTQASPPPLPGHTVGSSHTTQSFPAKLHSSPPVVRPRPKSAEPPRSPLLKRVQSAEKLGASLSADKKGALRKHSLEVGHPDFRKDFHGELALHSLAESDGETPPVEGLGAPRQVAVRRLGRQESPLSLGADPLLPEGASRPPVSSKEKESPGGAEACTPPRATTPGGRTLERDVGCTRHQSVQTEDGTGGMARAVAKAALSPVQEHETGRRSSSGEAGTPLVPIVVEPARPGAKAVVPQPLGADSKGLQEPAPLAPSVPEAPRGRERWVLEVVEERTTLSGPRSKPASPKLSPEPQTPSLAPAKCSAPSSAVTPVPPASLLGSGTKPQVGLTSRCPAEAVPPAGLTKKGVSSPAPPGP

[8] = biological target: LIM domain kinase 1 (Homo sapiens) (UniProt P53667); details: Compound concentration 1000.0 nM
Sequence of LIM domain kinase 1 (Homo sapiens) (P53667 whole entry, looked up, the tested form may be a part): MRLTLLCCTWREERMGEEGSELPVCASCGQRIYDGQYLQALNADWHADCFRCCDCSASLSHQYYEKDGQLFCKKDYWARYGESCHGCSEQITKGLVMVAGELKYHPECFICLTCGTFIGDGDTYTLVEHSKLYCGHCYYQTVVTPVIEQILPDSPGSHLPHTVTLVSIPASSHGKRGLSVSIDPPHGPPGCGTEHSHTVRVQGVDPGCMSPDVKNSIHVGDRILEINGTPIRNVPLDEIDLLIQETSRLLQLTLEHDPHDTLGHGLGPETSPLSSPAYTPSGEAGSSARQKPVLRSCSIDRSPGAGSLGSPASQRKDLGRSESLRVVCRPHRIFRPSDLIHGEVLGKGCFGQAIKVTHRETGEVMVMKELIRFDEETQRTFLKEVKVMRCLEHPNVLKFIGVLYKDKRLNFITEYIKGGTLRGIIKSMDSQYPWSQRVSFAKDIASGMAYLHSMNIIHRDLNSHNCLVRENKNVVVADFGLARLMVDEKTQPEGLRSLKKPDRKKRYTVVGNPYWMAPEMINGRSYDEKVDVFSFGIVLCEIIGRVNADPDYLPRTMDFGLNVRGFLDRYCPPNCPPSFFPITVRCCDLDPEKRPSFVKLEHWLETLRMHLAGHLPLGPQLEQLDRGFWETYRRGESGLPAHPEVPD

[9] = biological target: 3-phosphoinositide-dependent protein kinase 1 (Homo sapiens) (UniProt O15530); details: Compound concentration 1000.0 nM
Sequence of 3-phosphoinositide-dependent protein kinase 1 (Homo sapiens) (O15530 whole entry): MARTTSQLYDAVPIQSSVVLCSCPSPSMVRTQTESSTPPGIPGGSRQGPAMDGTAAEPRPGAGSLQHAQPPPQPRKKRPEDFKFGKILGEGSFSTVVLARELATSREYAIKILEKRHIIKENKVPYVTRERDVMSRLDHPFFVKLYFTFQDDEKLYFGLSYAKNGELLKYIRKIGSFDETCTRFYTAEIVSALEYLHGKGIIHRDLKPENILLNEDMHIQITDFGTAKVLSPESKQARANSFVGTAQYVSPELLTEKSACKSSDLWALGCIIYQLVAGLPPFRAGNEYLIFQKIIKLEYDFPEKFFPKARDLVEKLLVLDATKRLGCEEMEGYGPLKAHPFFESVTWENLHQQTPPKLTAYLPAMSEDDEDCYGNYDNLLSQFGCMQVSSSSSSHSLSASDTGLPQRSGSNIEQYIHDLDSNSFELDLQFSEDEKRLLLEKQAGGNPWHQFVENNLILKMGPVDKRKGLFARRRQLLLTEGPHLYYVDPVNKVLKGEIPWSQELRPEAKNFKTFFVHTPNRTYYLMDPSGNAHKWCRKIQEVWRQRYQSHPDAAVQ

[10] = biological target: T2, Serine/threonine-protein kinase haspin (Homo sapiens) (UniProt Q8TF76); details: Compound concentration 1000.0 nM
T2 sequence (whole entry): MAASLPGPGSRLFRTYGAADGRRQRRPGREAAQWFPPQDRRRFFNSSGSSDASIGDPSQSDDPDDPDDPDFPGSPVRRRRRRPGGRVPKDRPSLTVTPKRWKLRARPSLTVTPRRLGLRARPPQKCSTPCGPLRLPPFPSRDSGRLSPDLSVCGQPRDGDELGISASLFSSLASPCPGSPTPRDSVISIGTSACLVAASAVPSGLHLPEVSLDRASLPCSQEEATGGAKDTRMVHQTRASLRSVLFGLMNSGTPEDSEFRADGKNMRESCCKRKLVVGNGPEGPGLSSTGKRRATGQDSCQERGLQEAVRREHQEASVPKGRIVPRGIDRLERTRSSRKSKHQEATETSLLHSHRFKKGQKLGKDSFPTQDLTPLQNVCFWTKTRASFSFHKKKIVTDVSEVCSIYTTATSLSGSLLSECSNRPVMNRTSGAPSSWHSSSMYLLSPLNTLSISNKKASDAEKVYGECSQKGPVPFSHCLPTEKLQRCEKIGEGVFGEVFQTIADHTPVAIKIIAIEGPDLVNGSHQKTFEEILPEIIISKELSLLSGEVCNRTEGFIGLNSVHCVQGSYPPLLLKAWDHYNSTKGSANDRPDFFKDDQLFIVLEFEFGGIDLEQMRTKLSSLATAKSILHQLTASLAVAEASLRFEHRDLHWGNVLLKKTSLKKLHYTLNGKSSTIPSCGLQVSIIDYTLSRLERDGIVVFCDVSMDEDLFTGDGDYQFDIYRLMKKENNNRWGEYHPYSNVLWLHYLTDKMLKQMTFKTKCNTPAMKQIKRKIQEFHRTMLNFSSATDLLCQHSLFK

Sequence of Tyrosine-protein kinase ABL1 (Homo sapiens), P00519 [E255K] (P00519 whole entry E255K): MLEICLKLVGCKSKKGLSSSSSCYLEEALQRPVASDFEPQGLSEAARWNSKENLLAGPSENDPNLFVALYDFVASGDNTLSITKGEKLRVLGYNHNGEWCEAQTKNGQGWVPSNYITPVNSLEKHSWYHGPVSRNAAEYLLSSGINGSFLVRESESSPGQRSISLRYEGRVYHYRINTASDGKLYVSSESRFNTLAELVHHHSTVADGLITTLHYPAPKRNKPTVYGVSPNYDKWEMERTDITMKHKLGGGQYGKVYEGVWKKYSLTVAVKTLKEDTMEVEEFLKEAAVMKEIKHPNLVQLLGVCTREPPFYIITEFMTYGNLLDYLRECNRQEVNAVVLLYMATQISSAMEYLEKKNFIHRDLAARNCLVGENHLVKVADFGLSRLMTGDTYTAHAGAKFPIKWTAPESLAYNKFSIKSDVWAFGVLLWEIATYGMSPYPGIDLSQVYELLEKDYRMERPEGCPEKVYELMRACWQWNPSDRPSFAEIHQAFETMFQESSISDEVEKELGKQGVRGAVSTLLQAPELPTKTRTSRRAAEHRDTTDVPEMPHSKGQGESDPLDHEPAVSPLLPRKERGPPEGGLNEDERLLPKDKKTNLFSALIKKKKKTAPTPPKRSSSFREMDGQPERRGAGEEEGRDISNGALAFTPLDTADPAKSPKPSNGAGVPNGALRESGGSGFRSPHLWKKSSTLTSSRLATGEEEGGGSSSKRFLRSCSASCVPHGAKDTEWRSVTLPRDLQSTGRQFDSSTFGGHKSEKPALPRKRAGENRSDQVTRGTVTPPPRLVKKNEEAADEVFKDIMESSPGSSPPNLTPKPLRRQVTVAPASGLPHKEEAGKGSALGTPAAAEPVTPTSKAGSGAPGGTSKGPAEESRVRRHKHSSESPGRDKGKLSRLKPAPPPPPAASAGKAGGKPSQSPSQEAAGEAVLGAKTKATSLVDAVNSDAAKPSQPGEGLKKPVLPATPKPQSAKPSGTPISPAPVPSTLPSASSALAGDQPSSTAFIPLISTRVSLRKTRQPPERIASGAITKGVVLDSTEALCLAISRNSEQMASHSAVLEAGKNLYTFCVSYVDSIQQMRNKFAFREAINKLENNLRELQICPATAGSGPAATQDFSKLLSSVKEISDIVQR
Sequence of Sodium-dependent serotonin transporter (Homo sapiens) (P31645 whole entry, looked up): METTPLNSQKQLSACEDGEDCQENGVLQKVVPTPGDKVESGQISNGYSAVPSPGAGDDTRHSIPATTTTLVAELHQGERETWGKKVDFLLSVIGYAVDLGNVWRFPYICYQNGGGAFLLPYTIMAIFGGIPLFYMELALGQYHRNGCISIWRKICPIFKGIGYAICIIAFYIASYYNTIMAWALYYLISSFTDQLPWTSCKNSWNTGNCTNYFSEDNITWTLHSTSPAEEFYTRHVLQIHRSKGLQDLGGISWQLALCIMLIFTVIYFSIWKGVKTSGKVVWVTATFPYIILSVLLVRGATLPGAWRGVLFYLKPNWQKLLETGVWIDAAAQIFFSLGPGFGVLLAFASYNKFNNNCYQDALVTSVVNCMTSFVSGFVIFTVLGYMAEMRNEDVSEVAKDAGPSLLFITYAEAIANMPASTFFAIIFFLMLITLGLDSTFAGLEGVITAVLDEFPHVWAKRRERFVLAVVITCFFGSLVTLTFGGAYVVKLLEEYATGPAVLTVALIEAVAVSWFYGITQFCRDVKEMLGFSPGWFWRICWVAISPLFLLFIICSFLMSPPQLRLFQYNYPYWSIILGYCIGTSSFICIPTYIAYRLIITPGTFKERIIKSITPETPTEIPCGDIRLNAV
Sequence of RAC-alpha serine/threonine-protein kinase (Homo sapiens) (P31749 whole entry): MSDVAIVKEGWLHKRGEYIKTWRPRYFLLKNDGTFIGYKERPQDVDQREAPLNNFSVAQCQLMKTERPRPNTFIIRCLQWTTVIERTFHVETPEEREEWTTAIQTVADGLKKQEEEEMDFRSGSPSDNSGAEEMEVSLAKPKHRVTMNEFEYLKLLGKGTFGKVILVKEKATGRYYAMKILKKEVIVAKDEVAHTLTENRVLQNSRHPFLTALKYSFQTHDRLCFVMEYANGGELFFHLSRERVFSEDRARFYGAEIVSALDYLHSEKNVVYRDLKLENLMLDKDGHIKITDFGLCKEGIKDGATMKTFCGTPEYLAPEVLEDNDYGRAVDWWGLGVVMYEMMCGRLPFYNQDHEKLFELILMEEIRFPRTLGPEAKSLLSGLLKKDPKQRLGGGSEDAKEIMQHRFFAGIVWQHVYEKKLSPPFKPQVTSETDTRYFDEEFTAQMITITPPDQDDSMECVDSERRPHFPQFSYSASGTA

CN(C)C(=O)Cn1cc(-c2nc(C3(c4ccc(-c5cnc(N)nc5)cc4)CC3)no2)cn1 [BI 0153]
inactive: inhibition [1] 5.35% | residual activity [2] 97% | residual activity [3] 100% | residual activity [4] 93% | residual activity [5] 89% | residual activity [6] 93% | residual activity [7] 100% | residual activity [8] 100% | residual activity [9] 82% | residual activity [10] 74%

CN(C)C(=O)Cn1cc(-c2nc([C@@](C)(c3ccc(-c4cnc(N)nc4)cc3)C3CC3)no2)cn1 [BI 665915]
inactive: inhibition [1] 6.28% | residual activity [2] 94% | residual activity [3] 95% | residual activity [4] 98% | residual activity [5] 100% | residual activity [6] 93% | residual activity [7] 97% | residual activity [8] 81% | residual activity [9] 99% | residual activity [10] 100%
